Laboratory results taken from ChEMBL document CHEMBL3987221, “The Australian National University Dept Of Immunology Pathogen Box Compounds Screened” (2018).
The source made the active and inactive calls. No rule for the calls is given here.

Experiments:
[1] = target: T1, Porphobilinogen deaminase (Homo sapiens) (UniProt P08397); details: at 100 µM
T1 sequence (whole entry): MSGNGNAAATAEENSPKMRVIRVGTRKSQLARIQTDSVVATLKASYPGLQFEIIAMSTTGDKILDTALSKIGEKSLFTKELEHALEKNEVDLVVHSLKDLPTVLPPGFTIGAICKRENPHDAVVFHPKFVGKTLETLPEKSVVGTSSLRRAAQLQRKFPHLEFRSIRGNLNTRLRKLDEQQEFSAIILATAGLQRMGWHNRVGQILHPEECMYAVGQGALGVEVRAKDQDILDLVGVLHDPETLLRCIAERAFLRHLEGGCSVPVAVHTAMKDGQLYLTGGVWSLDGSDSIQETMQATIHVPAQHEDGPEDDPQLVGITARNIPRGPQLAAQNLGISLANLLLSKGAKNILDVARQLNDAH
Description: Compound was evaluated for the inhibition of human HMBS at 100uM

[2] = target: T2, Ferrochelatase, mitochondrial (Homo sapiens) (UniProt P22830); details: at 10 µM
T2 sequence (whole entry): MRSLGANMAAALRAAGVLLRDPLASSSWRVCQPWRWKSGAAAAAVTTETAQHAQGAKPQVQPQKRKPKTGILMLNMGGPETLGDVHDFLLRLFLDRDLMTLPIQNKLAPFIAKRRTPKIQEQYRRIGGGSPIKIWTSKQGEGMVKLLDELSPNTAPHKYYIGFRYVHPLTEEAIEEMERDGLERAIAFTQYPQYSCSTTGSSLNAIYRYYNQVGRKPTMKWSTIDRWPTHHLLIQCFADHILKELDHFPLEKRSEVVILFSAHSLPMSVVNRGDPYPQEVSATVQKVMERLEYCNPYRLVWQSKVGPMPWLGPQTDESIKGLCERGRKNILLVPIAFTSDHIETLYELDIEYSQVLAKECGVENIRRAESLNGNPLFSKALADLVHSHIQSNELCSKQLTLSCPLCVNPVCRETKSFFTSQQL
Description: Compound was evaluated for the inhibition of human FECH at 10uM

## O=C(NCCc1ccn(-c2ccccc2)n1)C1CCCCC1
[1]
  inhibition: inactive
[2]
  inhibition: inactive

## FC(F)(F)c1ccc(N(c2cccnc2)C2CCN(c3ccc(C(F)(F)F)cn3)CC2)cc1
[1]
  inhibition: inactive
[2]
  inhibition: inactive

## Clc1cccc(CO[C@H]2CCc3ccccc3[C@@H]2n2ccnn2)c1
[1]
  inhibition: inactive
[2]
  inhibition: inactive

## CCOC(=O)NC(=O)c1ccsc1NC(=O)c1nc2ccccc2s1
[1]
  inhibition: inactive
[2]
  inhibition: inactive

## O=C(NCc1nnc2n1CCCCC2)c1ccc(-c2ccc(F)cc2)o1
[1]
  inhibition: inactive
[2]
  inhibition: inactive

## CC(C)C(C(=O)Nc1ccc(S(=O)(=O)N(C)C)cc1)c1ccc(Cl)cc1 (stereo not given)
[1]
  inhibition: inactive
[2]
  inhibition: inactive

## Cc1nn2c(O)c3c(nc2c1-c1ccc(F)cc1)CCCC3
[1]
  inhibition: inactive
[2]
  inhibition: inactive

## CC1COC(Cn2cncn2)(c2ccc(Oc3ccc(Cl)cc3)cc2Cl)O1 (stereo not given)
[1]
  inhibition: inactive
[2]
  inhibition: inactive

## N=C(N)Nc1ccc(-c2ccc(-c3ccc(N=C(N)N)c(Cl)c3)o2)cc1Cl
[1]
  inhibition: inactive
[2]
  inhibition: inactive

## COc1cc(C(F)(F)F)nc2ccc(C)c(N)c12
[1]
  inhibition: inactive
[2]
  inhibition: inactive

## CC1=Nc2ccc(Cl)cc2C(O)(c2ccc(C)cc2)N1CCN1CCCCC1 (stereo not given)
[1]
  inhibition: inactive
[2]
  inhibition: inactive

## CNC(=O)C1Cc2c([nH]c3cc(Cl)ccc23)C2(CCN(CCc3ccccc3)CC2)N1 (stereo not given)
[1]
  inhibition: inactive
[2]
  inhibition: inactive

## O[C@@H](c1cc(C(F)(F)F)nc2c(C(F)(F)F)cccc12)[C@H]1CCCCN1
[1]
  inhibition: inactive
[2]
  inhibition: inactive

## COc1ccc(S(=O)(=O)Nc2ccc(CN3CCN(C(=O)c4cccc(C#N)c4)CC3)cc2)cc1
[1]
  inhibition: inactive
[2]
  inhibition: inactive

## CCn1cnc2c(Nc3cc(F)cc(F)c3)nc(C#N)nc21
[1]
  inhibition: inactive
[2]
  inhibition: inactive

## CC(C)NCC(=O)Nc1cccc(C(=O)Nc2cccc(C(F)(F)F)c2)c1
[1]
  inhibition: inactive
[2]
  inhibition: inactive

## CC(=O)N(CCN(C(=O)c1ccc(F)cc1)c1ccccc1)c1ccccc1
[1]
  inhibition: inactive
[2]
  inhibition: inactive

## Nc1ncnc2c1c(-c1cnc3ccccc3c1)nn2CC1CCNCC1
[1]
  inhibition: inactive
[2]
  inhibition: inactive

## CCn1ncc2c(NC3CCOCC3)c(CNC(=O)c3ccnn3C)c(C)nc21
[1]
  inhibition: inactive
[2]
  inhibition: inactive

## COc1ccc(-c2nnc3ccc(-c4cccc(C(C)C)c4)cn23)cc1OC
[1]
  inhibition: inactive
[2]
  inhibition: inactive

## COC(=O)c1c(NC(=O)c2cc3ccccc3oc2=O)sc2c1CCN(Cc1ccccc1)C2
[1]
  inhibition: inactive
[2]
  inhibition: inactive

## O=C(NC1CC1)c1ccc(N2CCC(Cc3ccccc3)CC2)nc1
[1]
  inhibition: inactive
[2]
  inhibition: inactive

## CNC(=O)CNc1nc(-c2ccccn2)nc2scc(-c3ccccc3)c12
[1]
  inhibition: inactive
[2]
  inhibition: inactive

## COC(=O)c1ccc(F)cc1NS(=O)(=O)c1cccc(-c2cnn(Cc3ccccc3)c2)c1
[1]
  inhibition: inactive
[2]
  inhibition: inactive

## CCN(CC)S(=O)(=O)c1ccc(Cl)c(C(=O)Nc2ccc3nc(C)sc3c2)c1
[1]
  inhibition: inactive
[2]
  inhibition: inactive

## O=C(Nc1cccnc1)c1c(O)c2cccc3c2n(c1=O)CC3
[1]
  inhibition: inactive
[2]
  inhibition: inactive

## CN1CCN(S(=O)(=O)c2ccc(-c3ccc4c(Nc5ccc6nn[nH]c6c5)ccnc4c3)cc2)CC1
[1]
  inhibition: inactive
[2]
  inhibition: inactive

## CC(C)n1nc(-c2cc3c(Cl)cccc3[nH]2)c2c(N)ncnc21
[1]
  inhibition: inactive
[2]
  inhibition: inactive

## COC(=O)c1c(NC(=O)c2c(F)c(F)c(F)c(F)c2F)sc2c1CCCCC2
[1]
  inhibition: inactive
[2]
  inhibition: inactive

## O=C1COCc2ccc(Br)cc2N1Cc1ccc(C(F)(F)F)cc1
[1]
  inhibition: inactive
[2]
  inhibition: inactive

## CO[C@H]1/C=C\O[C@@]2(C)Oc3c(C)c(O)c4c(O)c(/c(=C/NN5CCN(C)CC5)c(O)c4c3C2=O)=N\C(=O)/C(C)=C\C=C/[C@H](C)[C@H](O)[C@@H](C)[C@@H](O)[C@@H](C)[C@H](OC(C)=O)[C@@H]1C
[1]
  inhibition: inactive
[2]
  inhibition: inactive

## COc1cc(C2=NCCN2)cc2cc(-c3ccc(C4=NCCN4)cc3)oc12
[1]
  inhibition: inactive
[2]
  inhibition: inactive

## O=C(NCCN1CCCC1)c1cc(NCCCCN2CCC(F)(F)CC2)nc2ccc(Cl)cc12
[1]
  inhibition: inactive
[2]
  inhibition: inactive

## COc1ccc(CCN2CCC(NCc3cccc(N(C)C)c3)CC2)cc1
[1]
  inhibition: inactive
[2]
  inhibition: inactive

## O=C(Nc1ccc(N2CCNCC2)nc1)c1oc(-c2ccccc2)nc1C(F)(F)F
[1]
  inhibition: inactive
[2]
  inhibition: inactive

## NC(=O)c1cc(-c2ccsc2)ccc1OCCOc1ccccc1
[1]
  inhibition: inactive
[2]
  inhibition: inactive

## O=C(Cn1ccnc1[N+](=O)[O-])NCc1ccccc1
[1]
  inhibition: inactive
[2]
  inhibition: inactive

## Nc1ncnc2c1ncn2[C@@H]1O[C@H](COS(=O)(=O)NC(=O)c2ccccc2O)[C@@H](O)[C@H]1O
[1]
  inhibition: inactive
[2]
  inhibition: inactive

## COc1cccc(-n2nnnc2S(C)(=O)=O)c1
[1]
  inhibition: inactive
[2]
  inhibition: inactive

## CS(=O)(=O)N1CCC(Cn2nc(Cc3cccc4ccccc34)c3c(N)ncnc32)CC1
[1]
  inhibition: inactive
[2]
  inhibition: inactive

## c1cncc(NCc2ccc(-c3cc4ccncc4cc3OC3CCNCC3)s2)c1
[1]
  inhibition: inactive
[2]
  inhibition: inactive

## Cc1cc(C(=O)Nc2ccc(-c3ccccc3)cc2)no1
[1]
  inhibition: inactive
[2]
  inhibition: inactive

## Nc1nc(N)c2c3c(sc2n1)CN(Cc1ccccc1)CC3
[1]
  inhibition: inactive
[2]
  inhibition: inactive

## O=C(NCc1ccco1)N1CCN(Cc2ccc(Cl)s2)CC1
[1]
  inhibition: inactive
[2]
  inhibition: inactive

## Clc1ccc(CCNc2cc(-c3ccccc3)nc3ncnn23)cc1
[1]
  inhibition: inactive
[2]
  inhibition: inactive

## CS(=O)(=O)c1ccccc1C(=O)N(Cc1ccccc1)c1ccccc1
[1]
  inhibition: inactive
[2]
  inhibition: inactive

## CC(C)(C)n1nc(Cc2cccc3ccccc23)c2c(N)ncnc21
[1]
  inhibition: inactive
[2]
  inhibition: inactive

## c1cc(C2=NCCN2)cc(-c2cc(-c3ccc(C4=NCCN4)cc3)no2)c1
[1]
  inhibition: inactive
[2]
  inhibition: inactive

## Cc1nn(C)cc1C(C)Nc1nncc(-c2ccc(C(F)(F)F)cc2)n1 (stereo not given)
[1]
  inhibition: inactive
[2]
  inhibition: inactive

## N=C(N)c1ccc(-c2cc(-c3ccccc3)on2)cc1
[1]
  inhibition: inactive
[2]
  inhibition: inactive

## CCC(C)NC(=O)c1ccc(NC(=O)C2(c3ccccc3)CCCC2)cc1 (stereo not given)
[1]
  inhibition: inactive
[2]
  inhibition: inactive

## COc1ccc(N(CCc2cccc(C)n2)C(C)=O)cc1
[1]
  inhibition: inactive
[2]
  inhibition: inactive

## CC(=O)N1CCN(c2ccc(Oc3ccc(Cl)cc3O)cc2)CC1
[1]
  inhibition: inactive
[2]
  inhibition: inactive

## CC1CS(=O)(=O)CCN1/N=C/c1ccc([N+](=O)[O-])o1 (stereo not given)
[1]
  inhibition: inactive
[2]
  inhibition: inactive

## Cc1cc(C)nc(-n2nc(C)cc2Nc2ccccc2)n1
[1]
  inhibition: inactive
[2]
  inhibition: inactive

## FC(F)(F)c1cccc(-c2nc3c(NCc4ccncc4)nccc3[nH]2)c1
[1]
  inhibition: inactive
[2]
  inhibition: inactive

## CC1(C)Cc2c(c(N3CCOCC3)nc3snc(Br)c23)CO1
[1]
  inhibition: inactive
[2]
  inhibition: inactive

## Nc1nc2cc(-c3cncc(Oc4ccc(F)cc4)c3)ccc2[nH]1
[1]
  inhibition: inactive
[2]
  inhibition: inactive

## Cc1ccc2nc(C)c(-c3ccn(Cc4ccccc4)n3)n2c1
[1]
  inhibition: inactive
[2]
  inhibition: inactive

## Cc1cc(Cl)ccc1NC(=O)CCc1ccc(S(=O)(=O)NCC(C)C)cc1
[1]
  inhibition: inactive
[2]
  inhibition: inactive

## COc1ccc(-c2nc(-c3cccc(NC(=O)Cc4ccc(F)cc4)c3)no2)cc1OC
[1]
  inhibition: inactive
[2]
  inhibition: inactive

## C[C@H](c1ccc2c(c1)CCCC2)N(C)c1ncc2c(N)nc(N)nc2n1
[1]
  inhibition: inactive
[2]
  inhibition: inactive

## CC(C)/N=c1\cc2n(-c3ccc(Cl)cc3)c3ccccc3nc-2cc1Nc1ccc(Cl)cc1
[1]
  inhibition: inactive
[2]
  inhibition: inactive

## Cc1cnc(N2CCN[C@@H](Cc3ccccc3)C2)nc1Oc1ccc(-n2ccnc2)cc1
[1]
  inhibition: inactive
[2]
  inhibition: inactive

## COc1cncc(-c2cncc(N3CCN(c4ccncc4)CC3)n2)c1
[1]
  inhibition: inactive
[2]
  inhibition: inactive
